Results reported in ChEMBL document CHEMBL2311515, “Synthesis and evaluation of antibacterial activity of 7-alkyloxy-4,5-dihydro-imidazo[1,2-a]quinoline derivatives” (2013).
≈ marks a conversion by molar mass, not a printed value.

Tests used:
Format in all cases: functional
Staphylococcus aureus = assay: Antibacterial activity against Staphylococcus aureus ATCC 29213 assessed as growth inhibition after 20 hrs by NCCLS broth microdilution method; settings: ATCC 29213, 20 h
Escherichia coli = assay: Antibacterial activity against Escherichia coli ATCC 8739 assessed as growth inhibition after 20 hrs by NCCLS broth microdilution method; settings: ATCC 8739, 20 h
Pseudomonas aeruginosa = assay: Antibacterial activity against Pseudomonas aeruginosa ATCC 27853 assessed as growth inhibition after 20 hrs by NCCLS broth microdilution method; settings: ATCC 27853, 20 h
Salmonella = assay: Antibacterial activity against Salmonella ATCC 14028 assessed as growth inhibition after 20 hrs by NCCLS broth microdilution method; settings: ATCC 14028, 20 h
Pasteurella sp. = assay: Antibacterial activity against Pasteurella ATCC 6529 assessed as growth inhibition after 20 hrs by NCCLS broth microdilution method; settings: ATCC 6529, 20 h
Proteus vulgaris [1] = assay: Antibacterial activity against Proteus vulgaris ATCC 35659 assessed as growth inhibition after 20 hrs by NCCLS broth microdilution method; settings: ATCC 35659, 20 h
Klebsiella pneumoniae = assay: Antibacterial activity against Klebsiella pneumoniae ATCC 10031 assessed as growth inhibition after 20 hrs by NCCLS broth microdilution method; settings: ATCC 10031, 20 h
Proteus vulgaris [2] = assay: Ratio of amoxicillin MIC to compound MIC for Proteus vulgaris ATCC 35659
Proteus vulgaris [3] = assay: Ratio of ciprofloxacin MIC to compound MIC for Proteus vulgaris ATCC 35659

MIC (Staphylococcus aureus) [mg/L]	MIC (Escherichia coli) [mg/L]	SMILES	also measured
100 (≈ 390 µM)	50 (≈ 195 µM)	CCCCCOc1ccc2c(c1)CCc1nccn1-2	
75 (≈ 277 µM)	16 (≈ 59.2 µM)	CCCCCCOc1ccc2c(c1)CCc1nccn1-2	
		O=C(O)c1cn(C2CC2)c2cc(N3CCNCC3)c(F)cc2c1=O [CIPROFLOXACIN]	MIC (Pseudomonas aeruginosa): 4 mg/L (≈ 12.1 µM); MIC (Salmonella): > 128 mg/L; MIC (Pasteurella sp.): 128 mg/L (≈ 386 µM); MIC (Proteus vulgaris [1]): 128 mg/L (≈ 386 µM); MIC (Klebsiella pneumoniae): 4 mg/L (≈ 12.1 µM)
100 (≈ 306 µM)	50 (≈ 153 µM)	CCCCCCCCCCOc1ccc2c(c1)CCc1nccn1-2	
150 (≈ 619 µM)	50 (≈ 206 µM)	CCCCOc1ccc2c(c1)CCc1nccn1-2	
50 (≈ 141 µM)	25 (≈ 70.4 µM)	Brc1ccc(COc2ccc3c(c2)CCc2nccn2-3)cc1	
50 (≈ 170 µM)	50 (≈ 170 µM)	Fc1ccc(COc2ccc3c(c2)CCc2nccn2-3)cc1	
150 (≈ 483 µM)	50 (≈ 161 µM)	Clc1cccc(COc2ccc3c(c2)CCc2nccn2-3)c1	
50 (≈ 172 µM)	25 (≈ 86.1 µM)	Cc1ccc(COc2ccc3c(c2)CCc2nccn2-3)cc1	
25 (≈ 68.4 µM)	150 (≈ 410 µM)	CC1(C)S[C@@H]2[C@H](NC(=O)[C@H](N)c3ccc(O)cc3)C(=O)N2[C@H]1C(=O)O [AMOXICILLIN]	MIC (Pseudomonas aeruginosa): 16 mg/L (≈ 43.8 µM); MIC (Salmonella): > 128 mg/L; MIC (Pasteurella sp.): 16 mg/L (≈ 43.8 µM); MIC (Proteus vulgaris [1]): > 128 mg/L; MIC (Klebsiella pneumoniae): > 128 mg/L
50 (≈ 160 µM)	50 (≈ 160 µM)	CCCCCCCCCOc1ccc2c(c1)CCc1nccn1-2	
50 (≈ 168 µM)	25 (≈ 83.8 µM)	CCCCCCCCOc1ccc2c(c1)CCc1nccn1-2	
50 (≈ 176 µM)	0.5 (≈ 1.76 µM)	CCCCCCCOc1ccc2c(c1)CCc1nccn1-2	MIC (Pseudomonas aeruginosa): 16 mg/L (≈ 56.3 µM); Ratio (Proteus vulgaris [2]): 8; MIC (Salmonella): 64 mg/L (≈ 225 µM); MIC (Pasteurella sp.): 2 mg/L (≈ 7.03 µM); Ratio (Proteus vulgaris [3]): 8; MIC (Proteus vulgaris [1]): 16 mg/L (≈ 56.3 µM); MIC (Klebsiella pneumoniae): > 128 mg/L
150 (≈ 657 µM)	50 (≈ 219 µM)	CCCOc1ccc2c(c1)CCc1nccn1-2	
150 (≈ 510 µM)	50 (≈ 170 µM)	Fc1cccc(COc2ccc3c(c2)CCc2nccn2-3)c1	
100 (≈ 282 µM)	50 (≈ 141 µM)	Brc1ccccc1COc1ccc2c(c1)CCc1nccn1-2	
100 (≈ 326 µM)	50 (≈ 163 µM)	COc1ccc(COc2ccc3c(c2)CCc2nccn2-3)cc1	
50 (≈ 161 µM)	50 (≈ 161 µM)	Clc1ccc(COc2ccc3c(c2)CCc2nccn2-3)cc1	
150 (≈ 483 µM)	100 (≈ 322 µM)	Clc1ccccc1COc1ccc2c(c1)CCc1nccn1-2	
150 (≈ 510 µM)	50 (≈ 170 µM)	Fc1ccccc1COc1ccc2c(c1)CCc1nccn1-2	
100 (≈ 282 µM)	50 (≈ 141 µM)	Brc1cccc(COc2ccc3c(c2)CCc2nccn2-3)c1	
200 (≈ 724 µM)	50 (≈ 181 µM)	c1ccc(COc2ccc3c(c2)CCc2nccn2-3)cc1	
